Measurements as given in paper PMC12067145 (ACS Medicinal Chemistry Letters, 2025).

Experiments:
Opiate κ (OP2, KOP) = Opiate κ (OP2, KOP) (Homo sapiens, UniProt P41145); test: Eurofins lead profiling screen (radioligand binding)
Endothelin ETA = Endothelin ETA (Homo sapiens, UniProt P25101); test: as above
Prostanoid EP4 = Prostanoid EP4 (Homo sapiens, UniProt P35408); test: as above
Interleukin IL-1 R1 = Interleukin IL-1 R1 (Homo sapiens, UniProt P14778); test: as above
Melatonin MT1 = Melatonin MT1 (Homo sapiens, UniProt P48039); test: as above
Chain of Melatonin MT1 (P48039 whole entry): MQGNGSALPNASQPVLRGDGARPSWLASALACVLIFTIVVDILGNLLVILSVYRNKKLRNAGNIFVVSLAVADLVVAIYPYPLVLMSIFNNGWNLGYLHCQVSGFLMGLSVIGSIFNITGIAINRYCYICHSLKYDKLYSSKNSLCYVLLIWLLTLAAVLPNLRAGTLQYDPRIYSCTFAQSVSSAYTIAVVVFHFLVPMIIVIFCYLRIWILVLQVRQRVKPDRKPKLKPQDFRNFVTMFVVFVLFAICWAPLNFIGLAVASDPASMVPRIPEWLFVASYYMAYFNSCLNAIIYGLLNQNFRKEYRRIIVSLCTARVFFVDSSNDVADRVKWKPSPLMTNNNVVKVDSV

Purinergic P2X = test: as above; design: species or system Rat
Adenosine A3 = molecular target: T1, Adenosine A3 (Homo sapiens, UniProt P0DMS8); test: as above
T1 construct: Eurofins
T1 sequence (P0DMS8 whole entry): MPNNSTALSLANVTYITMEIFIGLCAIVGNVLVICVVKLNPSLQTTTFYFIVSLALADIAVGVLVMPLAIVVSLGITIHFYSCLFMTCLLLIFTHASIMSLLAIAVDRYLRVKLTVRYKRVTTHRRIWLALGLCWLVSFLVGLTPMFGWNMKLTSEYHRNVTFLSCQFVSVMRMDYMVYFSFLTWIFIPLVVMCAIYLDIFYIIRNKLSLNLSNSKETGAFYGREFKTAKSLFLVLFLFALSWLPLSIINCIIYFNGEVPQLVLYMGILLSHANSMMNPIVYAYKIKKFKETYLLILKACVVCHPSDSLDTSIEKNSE

Histamine H3 = Histamine H3 (Homo sapiens, UniProt Q9Y5N1); test: as above
Chain of Histamine H3 (Q9Y5N1 whole entry): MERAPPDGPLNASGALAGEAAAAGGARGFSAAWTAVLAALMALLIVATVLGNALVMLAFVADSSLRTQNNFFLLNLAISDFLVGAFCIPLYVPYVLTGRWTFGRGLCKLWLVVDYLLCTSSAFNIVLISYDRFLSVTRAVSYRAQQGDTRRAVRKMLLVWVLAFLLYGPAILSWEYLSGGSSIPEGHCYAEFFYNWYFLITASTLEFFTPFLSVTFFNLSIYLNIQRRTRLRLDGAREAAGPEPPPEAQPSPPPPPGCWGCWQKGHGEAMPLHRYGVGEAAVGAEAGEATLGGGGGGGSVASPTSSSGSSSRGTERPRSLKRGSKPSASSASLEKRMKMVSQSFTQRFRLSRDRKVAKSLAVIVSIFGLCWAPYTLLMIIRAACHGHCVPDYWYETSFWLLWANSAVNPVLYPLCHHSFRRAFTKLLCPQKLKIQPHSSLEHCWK

Sodium Channel, Site 2 = test: as above; design: species or system Rat
Adenosine A2A = Adenosine A2A (Homo sapiens, UniProt P29274); test: as above
Chain of Adenosine A2A (P29274 whole entry): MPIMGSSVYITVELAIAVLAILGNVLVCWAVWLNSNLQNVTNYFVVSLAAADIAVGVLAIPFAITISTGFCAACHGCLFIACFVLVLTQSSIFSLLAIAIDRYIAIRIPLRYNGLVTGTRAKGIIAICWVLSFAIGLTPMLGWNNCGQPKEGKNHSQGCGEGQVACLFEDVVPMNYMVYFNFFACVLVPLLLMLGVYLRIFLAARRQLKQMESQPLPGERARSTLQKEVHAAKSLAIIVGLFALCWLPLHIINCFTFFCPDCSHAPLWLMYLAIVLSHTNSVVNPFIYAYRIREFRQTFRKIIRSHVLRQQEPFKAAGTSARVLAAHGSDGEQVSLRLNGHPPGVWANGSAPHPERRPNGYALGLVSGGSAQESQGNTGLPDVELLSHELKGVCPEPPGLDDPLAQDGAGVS

Neuropeptide Y Y2 = Neuropeptide Y Y2 (Homo sapiens, UniProt P49146); test: as above
Calcium Channel N-Type = Calcium Channel N-Type (Rattus norvegicus, UniProt Q02294); test: as above
[1] = molecular target: Calcium Channel L-Type, Benzothiazepine (Rattus norvegicus, UniProt P22002); test: as above
[2] = molecular target: Leukotriene, Cysteinyl CysLT1 (Homo sapiens, UniProt Q9Y271); test: as above
Chain of Leukotriene, Cysteinyl CysLT1 (Q9Y271 whole entry): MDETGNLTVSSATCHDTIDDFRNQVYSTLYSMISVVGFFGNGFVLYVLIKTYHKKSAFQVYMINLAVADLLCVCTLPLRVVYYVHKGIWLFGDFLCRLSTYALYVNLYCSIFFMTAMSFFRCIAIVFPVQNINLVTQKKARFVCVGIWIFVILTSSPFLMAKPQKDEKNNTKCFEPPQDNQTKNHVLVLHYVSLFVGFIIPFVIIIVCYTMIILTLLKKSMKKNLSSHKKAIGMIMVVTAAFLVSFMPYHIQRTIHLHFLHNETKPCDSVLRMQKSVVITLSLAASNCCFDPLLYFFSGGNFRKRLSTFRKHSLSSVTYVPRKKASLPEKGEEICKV

GABAA, Muscimol, Central = test: as above; design: species or system Rat
Adrenergic α1B = Adrenergic α1B (Rattus norvegicus, UniProt P15823); test: as above
Estrogen ERα = Estrogen ERα (Homo sapiens, UniProt P03372); test: as above
Chain of Estrogen ERα (P03372 whole entry): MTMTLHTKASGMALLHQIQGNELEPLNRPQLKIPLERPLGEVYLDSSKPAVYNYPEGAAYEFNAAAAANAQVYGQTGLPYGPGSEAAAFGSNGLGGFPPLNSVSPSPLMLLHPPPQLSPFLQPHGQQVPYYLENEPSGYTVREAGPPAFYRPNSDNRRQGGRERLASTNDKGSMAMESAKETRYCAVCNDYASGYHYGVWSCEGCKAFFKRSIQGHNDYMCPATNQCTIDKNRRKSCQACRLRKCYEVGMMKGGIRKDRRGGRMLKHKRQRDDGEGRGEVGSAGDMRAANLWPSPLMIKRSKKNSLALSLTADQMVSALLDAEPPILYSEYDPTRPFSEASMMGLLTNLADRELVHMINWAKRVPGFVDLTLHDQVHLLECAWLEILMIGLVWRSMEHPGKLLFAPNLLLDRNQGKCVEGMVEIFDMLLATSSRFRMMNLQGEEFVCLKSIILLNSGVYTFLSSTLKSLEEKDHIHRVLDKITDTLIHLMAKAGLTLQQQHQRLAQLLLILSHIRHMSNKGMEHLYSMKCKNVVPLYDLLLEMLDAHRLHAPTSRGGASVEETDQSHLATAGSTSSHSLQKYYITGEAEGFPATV

Neuropeptide Y Y1 = Neuropeptide Y Y1 (Homo sapiens, UniProt P25929); test: as above
Chain of Neuropeptide Y Y1 (P25929 whole entry): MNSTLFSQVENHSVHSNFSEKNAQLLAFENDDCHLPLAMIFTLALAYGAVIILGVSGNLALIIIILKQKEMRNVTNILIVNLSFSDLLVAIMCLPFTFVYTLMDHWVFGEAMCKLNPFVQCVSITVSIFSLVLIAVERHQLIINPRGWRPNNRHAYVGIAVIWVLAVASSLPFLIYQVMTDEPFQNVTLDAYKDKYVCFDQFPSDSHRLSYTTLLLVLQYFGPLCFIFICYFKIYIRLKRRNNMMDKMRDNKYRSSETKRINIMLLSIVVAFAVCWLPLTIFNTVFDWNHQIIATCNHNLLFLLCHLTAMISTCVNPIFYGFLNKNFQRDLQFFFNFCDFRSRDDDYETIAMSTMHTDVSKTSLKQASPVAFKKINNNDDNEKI

Serotonin (5-HT2B) = Serotonin (5-HT2B) (Homo sapiens, UniProt P41595); test: as above
Chain of Serotonin (5-HT2B) (P41595 whole entry): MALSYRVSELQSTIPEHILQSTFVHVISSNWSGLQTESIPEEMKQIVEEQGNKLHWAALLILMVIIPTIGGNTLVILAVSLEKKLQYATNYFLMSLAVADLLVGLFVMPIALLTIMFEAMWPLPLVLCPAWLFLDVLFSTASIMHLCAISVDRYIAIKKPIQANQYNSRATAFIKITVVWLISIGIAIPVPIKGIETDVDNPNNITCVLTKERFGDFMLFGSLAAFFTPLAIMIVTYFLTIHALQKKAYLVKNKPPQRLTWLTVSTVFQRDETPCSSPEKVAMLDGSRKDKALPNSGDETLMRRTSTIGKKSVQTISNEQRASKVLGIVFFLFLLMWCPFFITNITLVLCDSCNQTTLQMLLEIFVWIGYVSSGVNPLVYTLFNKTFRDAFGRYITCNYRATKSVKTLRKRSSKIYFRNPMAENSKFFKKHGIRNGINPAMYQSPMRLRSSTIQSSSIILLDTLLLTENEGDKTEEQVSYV

[3] = Plasma protein binding (rat); assay type: in vitro ADME; conditions: pH 7.4, read-out: PPB rat
Description: (§1) 0.3% DMSO - ΔRatio of 1 µM control compound)x100
In vitro Plasma protein binding and Brain homogenate binding: Determination of fraction unbound (f u) in plasma was conducted in vitro via equilibrium dialysis using HTDialysis (HTD) membrane plates. The top half of the plate was filled with 100 uL of Dubelco’s Phosphate Buffered Saline, pH 7.4 (DPBS). Compounds were diluted into plasma from each species (5 µM final concentration), which was aliquoted in triplicate to the ‘bottom half’ of the prepared HTD plate wells. The HTD plate was sealed and incubated for 6 hours at 37 °C. Following incubation, each well (both top and bottom halves) were transferred (20 µL) to the corresponding wells of a 96-shallow-well (V-bottom) plate. The daughter plates were then matrix-matched (DPBS side wells received equal volume of plasma, and plasma side wells received equal volume of DPBS), and extraction solution (120 µL; acetonitrile containing 50 nM carbamazepine as IS) was added to all wells of both daughter plates to precipitate protein and extract test article. The plates were then sealed and centrifuged (3500 rcf) for 10 minutes at ambient temperature. […]
The unbound fraction (f u) was calculated following the equation below, and mean values for each species were calculated from 3 replicates. […] Fraction unbound for both plasma and brain samples was determined using Equation 4.

[4] = Brain homogenate binding (mouse); assay type: in vitro ADME
Description: as §1
In vitro Plasma protein binding and Brain homogenate binding: Determination of fraction unbound (f u) in plasma was conducted in vitro via equilibrium dialysis using HTDialysis (HTD) membrane plates. The top half of the plate was filled with 100 uL of Dubelco’s Phosphate Buffered Saline, pH 7.4 (DPBS). Compounds were diluted into plasma from each species (5 µM final concentration), which was aliquoted in triplicate to the ‘bottom half’ of the prepared HTD plate wells. The HTD plate was sealed and incubated for 6 hours at 37 °C. […]
The unbound fraction (f u) was calculated following the equation below, and mean values for each species were calculated from 3 replicates. […] Fraction unbound for both plasma and brain samples was determined using Equation 4. […]
The diluted fraction unbound (fu2) in brain was calculated in the same manner by using brain homogenate rather than plasma. Undiluted fraction unbound for the brain was calculated using […]
were incubated in 100 mM potassium phosphate pH 7.4 buffer with 3 mM MgCl2 at 37 °C with constant shaking. […] The in vitro half-life (T 1/2, min, Eq. 1), intrinsic clearance (CLint, mL/min/kg, Eq. 2), and subsequent predicted hepatic clearance (CLhep, mL/min/kg, Eq. 3) were determined employing the following equations: […]

Kir2.2 = Kir2.2 (Homo sapiens, UniProt Q14500); test: Cardiac ion channel MPC selectivity panel; assay type: cell-based
[5] = Plasma protein binding (mouse); assay type: in vitro ADME; conditions: pH 7.4, read-out: PPB mouse (converted)
Description: as §1
In vitro Plasma protein binding and Brain homogenate binding: Determination of fraction unbound (f u) in plasma was conducted in vitro via equilibrium dialysis using HTDialysis (HTD) membrane plates. The top half of the plate was filled with 100 uL of Dubelco’s Phosphate Buffered Saline, pH 7.4 (DPBS). Compounds were diluted into plasma from each species (5 µM final concentration), which was aliquoted in triplicate to the ‘bottom half’ of the prepared HTD plate wells. The HTD plate was sealed and incubated for 6 hours at 37 °C. Following incubation, each well (both top and bottom halves) were transferred (20 µL) to the corresponding wells of a 96-shallow-well (V-bottom) plate. The daughter plates were then matrix-matched (DPBS side wells received equal volume of plasma, and plasma side wells received equal volume of DPBS), and extraction solution (120 µL; acetonitrile containing 50 nM carbamazepine as IS) was added to all wells of both daughter plates to precipitate protein and extract test article. The plates were then sealed and centrifuged (3500 rcf) for 10 minutes at ambient temperature. Supernatant (60 µL) from each well of the daughter plates was then transferred to the corresponding wells of new daughter plates (96-shallow-well, V bottom) containing water (Milli-Q, 60 µL/well), and the plates were sealed in preparation for LC-MS/MS analysis (see LC-MS/MS analysis method below).
The unbound fraction (f u) was calculated following the equation below, and mean values for each species were calculated from 3 replicates. A similar approach was used to determine the degree of brain homogenate binding, which employed the same methodology and procedure with the following modifications: 1) a final compound concentration of 1 μM was used, 2) naïve rat brains were homogenized in DPBS (1:3 composition of brain: DPBS, w/w) using a Mini-Bead Beater™ machine in order to obtain brain homogenate, which was then treated in the same manner as the plasma samples in the previously described plasma protein binding assay. Fraction unbound for both plasma and brain samples was determined using Equation 4.

Kv4.3 = Kv4.3 (Homo sapiens, UniProt Q9UK17); test: Cardiac ion channel MPC selectivity panel; assay type: cell-based
Chain of Kv4.3 (Q9UK17 whole entry): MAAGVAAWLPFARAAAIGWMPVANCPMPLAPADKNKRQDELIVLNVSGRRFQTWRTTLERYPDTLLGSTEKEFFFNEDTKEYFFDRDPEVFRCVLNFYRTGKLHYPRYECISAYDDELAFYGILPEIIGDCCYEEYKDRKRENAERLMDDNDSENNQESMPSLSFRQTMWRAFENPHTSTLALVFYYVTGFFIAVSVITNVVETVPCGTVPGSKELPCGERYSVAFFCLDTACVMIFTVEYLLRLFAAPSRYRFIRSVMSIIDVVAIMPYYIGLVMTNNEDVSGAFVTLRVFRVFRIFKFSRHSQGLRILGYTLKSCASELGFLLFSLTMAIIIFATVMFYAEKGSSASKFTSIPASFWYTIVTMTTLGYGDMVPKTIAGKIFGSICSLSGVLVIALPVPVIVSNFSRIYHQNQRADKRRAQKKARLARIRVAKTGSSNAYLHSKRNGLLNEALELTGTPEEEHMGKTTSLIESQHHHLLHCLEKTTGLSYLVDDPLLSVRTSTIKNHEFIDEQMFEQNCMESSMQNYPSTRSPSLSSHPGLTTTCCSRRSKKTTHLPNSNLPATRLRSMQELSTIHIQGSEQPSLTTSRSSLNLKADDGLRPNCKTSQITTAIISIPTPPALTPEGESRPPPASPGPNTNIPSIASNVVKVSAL

Chain of Prostanoid EP4 (P35408 whole entry): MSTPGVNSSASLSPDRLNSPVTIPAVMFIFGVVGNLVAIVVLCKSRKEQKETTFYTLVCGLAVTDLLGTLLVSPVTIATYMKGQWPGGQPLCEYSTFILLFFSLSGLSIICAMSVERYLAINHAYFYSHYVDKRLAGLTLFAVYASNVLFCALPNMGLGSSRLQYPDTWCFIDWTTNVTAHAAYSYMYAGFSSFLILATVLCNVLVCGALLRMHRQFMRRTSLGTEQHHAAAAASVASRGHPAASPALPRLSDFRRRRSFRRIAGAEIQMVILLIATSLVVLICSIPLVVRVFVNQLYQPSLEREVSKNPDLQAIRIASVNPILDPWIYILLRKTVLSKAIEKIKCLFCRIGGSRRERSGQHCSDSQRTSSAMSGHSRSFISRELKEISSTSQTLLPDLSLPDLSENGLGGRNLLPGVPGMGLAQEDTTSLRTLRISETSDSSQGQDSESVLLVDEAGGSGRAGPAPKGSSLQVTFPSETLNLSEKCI
Chain of Endothelin ETA (P25101 21-427): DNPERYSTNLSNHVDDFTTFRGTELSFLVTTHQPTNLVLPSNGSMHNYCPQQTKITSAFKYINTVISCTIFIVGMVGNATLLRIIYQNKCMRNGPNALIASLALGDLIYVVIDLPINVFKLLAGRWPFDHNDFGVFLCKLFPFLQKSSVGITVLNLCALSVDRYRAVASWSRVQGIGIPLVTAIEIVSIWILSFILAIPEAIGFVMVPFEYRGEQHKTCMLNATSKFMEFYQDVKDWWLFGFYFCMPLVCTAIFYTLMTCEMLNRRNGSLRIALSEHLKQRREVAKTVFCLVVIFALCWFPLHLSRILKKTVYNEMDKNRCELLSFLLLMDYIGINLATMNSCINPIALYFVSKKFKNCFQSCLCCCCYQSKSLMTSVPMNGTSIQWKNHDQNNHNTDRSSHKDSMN

SMILES: O=C(NCc1ccc(OC(F)(F)F)cc1F)c1ccc2ncnn2c1 [ONO-2920632]
- inhibition at 10 µM (Opiate κ (OP2, KOP)): 9%
- inhibition at 10 µM (Endothelin ETA): -11%
- inhibition at 10 µM (Prostanoid EP4): 19%
- inhibition at 10 µM (Interleukin IL-1 R1): -1%
- inhibition at 10 µM (Melatonin MT1): 29%
- % Inhibition at 10 µM (Purinergic P2X): 1%
- inhibition at 10 µM (Adenosine A3): 84%
- inhibition at 10 µM (Histamine H3): 4%
- % Inhibition at 10 µM (Sodium Channel, Site 2; 10 µM): 84%
- inhibition at 10 µM (Adenosine A2A): 3%
- inhibition at 10 µM (Neuropeptide Y Y2): 6%
- inhibition at 10 µM (Calcium Channel N-Type): 4%
- inhibition at 10 µM [1]: 56%
- inhibition at 10 µM [2]: -7%
- % Inhibition at 10 µM (GABAA, Muscimol, Central): 2%
- inhibition at 10 µM (Adrenergic α1B): 11%
- inhibition at 10 µM (Estrogen ERα): 8%
- inhibition at 10 µM (Neuropeptide Y Y1): 15%
- inhibition at 10 µM (Serotonin (5-HT2B)): 31%

SMILES: Cc1cc(C#Cc2ccc(F)cc2)cnc1NC(=O)c1cc(NC(=O)OC(C)(C)C)ccc1Cl [Compound 14c]
- fraction unbound at 6 h, 5 µM [3]: 0.001
- brain homogenate binding mouse [4]: 99.4%
- % at 10 μM, Kir2.2 (Kir2.2): 52%
- Ki (Adenosine A3): 480 nM
- Ki (Sodium Channel, Site 2): 650 nM
- fraction unbound at 6 h, 5 µM [5]: 0.016
- % at 10 μM, Kv4.3 (Kv4.3): < 50%
